Experiment [1] addresses T1, Keap1 Kelch domain (321-609) / TAMRA-labeled 16mer NRF2 peptide (ETGE motif) (Homo sapiens, UniProt Q14145).
T1 construct: the Kelch domain (321-609) of Keap1 is used
The experiment is described as follows: NRF2-Keap1 FP Assay (Keap1 Kelch fluorescence polarization). The format is binding. The conditions noted are these: 20 nM Keap1 (321-609), 8 nM Tamra labeled peptide. A digest of the protocol: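 Compound dilutions (3-fold) were incubated 1 hr at room temperature with 20 nM Keap1 Kelch (321-609) and 8 nM TAMRA-labeled ETGE 16mer peptide. Buffer was 50 mM Tris pH 8.0, 100 mM NaCl, 5 mM MgCl2, 1 mM DTT, 2 mM CHAPS, 0.005% BSA. Fluorescence polarization (mP) was normalized to controls and fitted with a four-parameter equation to give pIC50.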
(In fluorescence polarisation assays a small probe gives low polarisation when free and higher when bound to something large.)

The subject of experiment [2] is NQO1 specific enzyme activity in BEAS-2B cells (marker for NRF2 activation). The experiment is described as follows: BEAS-2B NQO1 MTT Assay. It counts as cell-based. The conditions noted are these: Homo sapiens, compound incubated 48 hours, read-out: EC50 (NQO1 specific enzyme activity induction). A digest of the protocol: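 BEAS-2B cells treated with compound for 48 h at 37 °C, then lysed; NQO1 activity in lysates measured kinetically by MTT reduction at A570 over 30 min. pEC50 from 3-parameter fit of ΔOD/min versus log concentration; lysate also taken for Cell Titer Glo.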

pEC50, pIC50: −log10 of the molar value. Read-outs that look alike come from different tables or passages of the source.

T1 sequence (Q14145 321-609): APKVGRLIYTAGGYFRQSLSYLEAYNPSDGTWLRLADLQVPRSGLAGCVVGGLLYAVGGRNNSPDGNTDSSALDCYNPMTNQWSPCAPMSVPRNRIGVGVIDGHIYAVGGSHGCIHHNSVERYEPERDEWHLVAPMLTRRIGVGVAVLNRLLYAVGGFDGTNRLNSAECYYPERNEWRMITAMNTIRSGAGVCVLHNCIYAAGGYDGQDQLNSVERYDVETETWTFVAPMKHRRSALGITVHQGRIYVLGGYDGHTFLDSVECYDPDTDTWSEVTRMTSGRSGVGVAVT

By pIC50 is commonly meant the negative decadic logarithm of the IC50, by convention in mol/L. High values mean a small IC50, low ones a large IC50. Usually pEC50 stands for the negative decadic logarithm of the EC50, by convention in mol/L. `CCCC1CCCCN1C(=O)c1cccc(-c2cccc(-n3ncc(C(=O)O)c3C3CC3c3cn(C)nn3)c2)c1` (stereo not shown) [Example 42, 5-[2-(1-methyl-1H-1,2,3-triazol-4-yl)cyclopropyl]-1-{3-[3-(2-propylpiperidine-1-carbonyl)phenyl]phenyl}-1H-pyrazole-4-carboxylic Acid] gave a negative-log IC50 (pIC50) in experiment [1] of 7.00 to 8.00. Besides, the pEC50 in experiment [2] (BEAS-2B, 48 h) is 6.00 to 7.00.

In experiment [1], `CCC[C@@H]1CCCCN1C(=O)c1cccc(-c2cccc(-n3ncc(C(=O)O)c3[C@H]3C[C@@H]3c3cn(C)nn3)c2)c1` [Example 51g, 5-[(1S,2S)-2-(1-methyl-1H-1,2,3-triazol-4-yl)cyclopropyl]-1-(3-{3-[(2R)-2-propylpiperidine-1-carbonyl]phenyl}phenyl)-1H-pyrazole-4-carboxylic Acid] showed a pIC50 of 6.00 to 7.00. Besides, the pEC50 in experiment [2] (BEAS-2B, 48 h) is 5.00 to 6.00.

In the case of `CCC[C@@H]1CCCCN1C(=O)c1cccc(-c2cccc(-n3ncc(C(=O)O)c3[C@@H]3C[C@H]3c3cn(C)nn3)c2)c1` [Example 51h, 5-[(1R,2R)-2-(1-methyl-1H-1,2,3-triazol-4-yl)cyclopropyl]-1-(3-{3-[(2R)-2-propylpiperidine-1-carbonyl]phenyl}phenyl)-1H-pyrazole-4-carboxylic Acid], the negative logarithm of the IC50 (pIC50) in experiment [1] is 7.00 to 8.00. In experiment [2] (BEAS-2B, 48 h), the pEC50 was 7.00 to 8.00.

On to `CCC[C@@H]1CCCCN1C(=O)c1cccc(-c2cccc(-n3ncc(C(=O)O)c3C3CC3c3cn(C)nn3)c2)c1F` (stereo partly drawn) [Example 57, 1-(2′-Fluoro-3′-((R)-2-propylpiperidine-1-carbonyl)-[1,1′-biphenyl]-3-yl)-5-(2-(1-methyl-1H-1,2,3-triazol-4-yl)cyclopropyl)-1H-pyrazole-4-carboxylic Acid], for which the pIC50 in experiment [1] was 7.00 to 8.00. In addition, in experiment [2] (BEAS-2B, 48 h), the pEC50 was 7.00 to 8.00.

`O=C(O)c1cnn(-c2cccc(-c3cccc(-n4ncc5c4CCC5)c3)c2)c1C1CC1` [Example 61, 5-Cyclopropyl-1-(3′-(5,6-dihydrocyclopenta[c]pyrazol-1(4H)-yl)-[1,1′-biphenyl]-3-yl)-1H-pyrazole-4-carboxylic Acid] showed a pIC50 in experiment [1] of 6.00 to 7.00. Further, the pEC50 in experiment [2] (BEAS-2B, 48 h) was 6.00 to 7.00.

The molecule `O=C(O)c1cnn(-c2cccc(-c3cccc(-n4ncc5c4CCCC5)c3)c2)c1C1CC1` [Example 62, 5-cyclopropyl-1-(3′-(4,5,6,7-tetrahydro-1H-indazol-1-yl)-[1,1′-biphenyl]-3-yl)-1H-pyrazole-4-carboxylic Acid] showed a pIC50 in experiment [1] of 6.00 to 7.00. In addition, the negative-log EC50 (pEC50) in experiment [2] (BEAS-2B, 48 h) was 6.00 to 7.00.

For the molecule `CCC[C@@H]1CCCCN1C(=O)c1cccc(-c2cccc(-n3ncc(C(=O)O)c3C3CC3(F)F)c2)c1` (stereo partly drawn) [Example 67, 5-(2,2-Difluorocyclopropyl)-1-(3′-((R)-2-propylpiperidine-1-carbonyl)-[1,1′-biphenyl]-3-yl)-1H-pyrazole-4-carboxylic Acid], in experiment [1], the pIC50 is 7.00 to 8.00. The negative-log EC50 (pEC50) in experiment [2] (BEAS-2B, 48 h) was 6.00 to 7.00.

Turning to `CC[C@@H]1CN(Cc2cccc(-c3cccc(-n4ncc(C(=O)O)c4C4CC4c4cn(C)nn4)c3)c2)Cc2ccccc2O1` (stereo partly drawn) [Example 129, 1-(3′-(((R)-2-ethyl-2,3-dihydrobenzo[f][1,4]oxazepin-4(5H)-yl)methyl)-[1,1′-biphenyl]-3-yl)-5-(2-(1-methyl-1H-1,2,3-triazol-4-yl)cyclopropyl)-1H-pyrazole-4-carboxylic Acid], in experiment [1], the negative-log IC50 (pIC50) is 7.00 to 8.00. Also, the pEC50 in experiment [2] was 6.00 to 7.00.

`CCC[C@@H]1CCCCN1C(=O)c1cccc(-c2cc(C)cc(-n3ncc(C(=O)O)c3C3CC3c3cn(C)nn3)c2)c1` (stereo partly drawn) [Example 154, 5-(2-(1-Methyl-1H-1,2,3-triazol-4-yl)cyclopropyl)-1-(5-methyl-3′-((R)-2-propylpiperidine-1-carbonyl)-[1,1′-biphenyl]-3-yl)-1H-pyrazole-4-carboxylic Acid] had a pIC50 in experiment [1] of 7.00 to 8.00. The pEC50 in experiment [2] (BEAS-2B, 48 h) is 6.00 to 7.00.

Take `CCC[C@@H]1CCCCN1C(=O)c1cccc(-c2cc(Cl)cc(-n3ncc(C(=O)O)c3C3CC3c3cn(C)nn3)c2)c1` (stereo partly drawn) [Example 160, 1-(5-Chloro-3′-((R)-2-propylpiperidine-1-carbonyl)-[1,1′-biphenyl]-3-yl)-5-(2-(1-methyl-1H-1,2,3-triazol-4-yl)cyclopropyl)-1H-pyrazole-4-carboxylic Acid Compound with 2,2,2-trifluoroacetic Acid (1:1)]: the negative-log IC50 (pIC50) in experiment [1] is 7.00 to 8.00. Also, the pEC50 in experiment [2] (BEAS-2B, 48 h) is 6.00 to 7.00.

In experiment [1], `CC(CC1CCCCC1)Oc1cccc(-c2cccc(-n3ncc(C(=O)O)c3C3CC3)c2)c1` (stereo not shown) [Example 161, 1-(3′-((1-Cyclohexylpropan-2-yl)oxy)-[1,1′-biphenyl]-3-yl)-5-cyclopropyl-1H-pyrazole-4-carboxylic Acid] had a pIC50 of 5.00 to 6.00. In addition, the negative logarithm of the EC50 (pEC50) in experiment [2] is 6.00 to 7.00.

On to `CC(Oc1cccc(-c2cccc(-n3ncc(C(=O)O)c3[C@@H]3C[C@H]3c3cn(C)nn3)c2)c1)C1CCCCC1` (stereo partly drawn) [Example 163, 1-(3′-(1-Cyclohexylethoxy)-[1,1′-biphenyl]-3-yl)-5-((1R,2R)-2-(1-methyl-1H-1,2,3-triazol-4-yl)cyclopropyl)-1H-pyrazole-4-carboxylic acid], for which the negative-log IC50 (pIC50) in experiment [1] is 6.00 to 7.00. In addition, the pEC50 in experiment [2] (BEAS-2B, 48 h) was 7.00 to 8.00.

Turning to `Cn1cc(C2CC2c2c(C(=O)O)cnn2-c2cccc(-c3cccc(OCC4CCCCC4)c3)c2)nn1` (stereo not shown) [Example 164, 1-(3′-(Cyclohexylmethoxy)-[1,1′-biphenyl]-3-yl)-5-(2-(1-methyl-1H-1,2,3-triazol-4-yl)cyclopropyl)-1H-pyrazole-4-carboxylic acid], the pIC50 in experiment [1] is 7.00 to 8.00. In addition, the negative logarithm of the EC50 (pEC50) in experiment [2] is 7.00 to 8.00.

The molecule `CC(Oc1cccc(-c2cccc(-n3ncc(C(=O)O)c3[C@H]3C[C@@H]3c3cn(C)nn3)c2)c1)C1CCCCC1` (stereo partly drawn) [Example 165, 1-(3′-(1-Cyclohexylethoxy)-[1,1′-biphenyl]-3-yl)-5-((1S,2S)-2-(1-methyl-1H-1,2,3-triazol-4-yl)cyclopropyl)-1H-pyrazole-4-carboxylic acid] showed a pIC50 in experiment [1] of 7.00 to 8.00. The negative-log EC50 (pEC50) in experiment [2] (BEAS-2B, 48 h) was 8.00 to 9.00.

Regarding `Cn1cc(C2CC2c2c(C(=O)O)cnn2-c2cccc(-c3cccc(OCC4CCN(C(=O)OC(C)(C)C)CC4)c3)c2)nn1` (stereo not shown) [Example 167, 1-(3′-((1-(tert-Butoxycarbonyl)piperidin-4-yl)methoxy)-[1,1′-biphenyl]-3-yl)-5-(2-(1-methyl-1H-1,2,3-triazol-4-yl)cyclopropyl)-1H-pyrazole-4-carboxylic acid], the pIC50 in experiment [1] is 7.00 to 8.00. Also, the pEC50 in experiment [2] was 6.00 to 7.00.

As to `Cn1cc([C@@H]2C[C@H]2c2c(C(=O)O)cnn2-c2cccc(-c3cccc(OCC4CCCCC4)c3)c2)nn1` [Example 171, 1-(3′-(Cyclohexylmethoxy)-[1,1′-biphenyl]-3-yl)-5-((1R,2R)-2-(1-methyl-1H-1,2,3-triazol-4-yl)cyclopropyl)-1H-pyrazole-4-carboxylic acid], the pIC50 in experiment [1] was 7.00 to 8.00. For the same molecule, the pEC50 in experiment [2] was 7.00 to 8.00.

Molecule `Cn1cc(C2CC2c2c(C(=O)O)cnn2-c2cccc(-c3cccc(SCC4CCCCC4)c3)c2)nn1` (stereo not shown) [Example 179, 1-(3′-((Cyclohexylmethyl)thio)-[1,1′-biphenyl]-3-yl)-5-(2-(1-methyl-1H-1,2,3-triazol-4-yl)cyclopropyl)-1H-pyrazole-4-carboxylic acid] gave a negative logarithm of the IC50 (pIC50) in experiment [1] of 7.00 to 8.00. Also, in experiment [2], the pEC50 was 8.00 to 9.00.

Source of the values: US10364256B2 (GlaxoSmithKline Intellectual Property Development Limited, priority 2015, dated 2019).
